Experimental data published in US20230278995A1, “1,3,4-OXADIAZOLE DERIVATIVE COMPOUNDS AS HISTONE DEACETYLASE 6 INHIBITOR, AND THE PHARMACEUTICAL COMPOSITION COMPRISING THE SAME” (CHONG KUN DANG PHARMACEUTICAL CORP., priority 2020, published 2023).

Assays:
[1] = target: T1, human recombinant HDAC1 (Homo sapiens, UniProt Q13547); test: HDAC enzyme activity inhibition assay (HDAC Fluorimetric Drug Discovery Kit), HDAC1; assay type: biochemical; conditions: human recombinant HDAC1, Fluor de Lys-SIRT1 substrate, 30° C. 60 minutes
T1 construct: purchased Enzo Life Sciences, Inc. BML-SE456
T1 sequence (Q13547 whole entry): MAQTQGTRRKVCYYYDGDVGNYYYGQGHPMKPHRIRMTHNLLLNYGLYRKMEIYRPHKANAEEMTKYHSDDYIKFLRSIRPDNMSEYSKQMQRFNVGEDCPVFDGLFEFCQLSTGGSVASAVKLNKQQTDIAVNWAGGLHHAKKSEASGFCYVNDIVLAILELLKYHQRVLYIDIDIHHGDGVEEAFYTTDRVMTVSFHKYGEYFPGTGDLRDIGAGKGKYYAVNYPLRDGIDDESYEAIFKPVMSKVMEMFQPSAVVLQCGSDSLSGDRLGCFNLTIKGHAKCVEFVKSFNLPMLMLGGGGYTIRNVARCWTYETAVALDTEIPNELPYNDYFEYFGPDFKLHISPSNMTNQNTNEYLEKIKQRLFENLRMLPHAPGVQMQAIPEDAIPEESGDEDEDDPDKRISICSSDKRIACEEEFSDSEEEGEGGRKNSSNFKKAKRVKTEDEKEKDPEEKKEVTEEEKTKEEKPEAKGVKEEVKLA
How it was run: (§1)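 Recombinant human HDAC1 or HDAC6 (0.3 μg) reacted with 10 μM Fluor de Lys-SIRT1 substrate at 30 °C for 60 min. Developer added for 30 min, then fluorescence read at Ex 360/Em 460.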

[2] = target: T2, human recombinant HDAC6 (Homo sapiens, UniProt Q9UBN7); test: HDAC enzyme activity inhibition assay (HDAC Fluorimetric Drug Discovery Kit), HDAC6; assay type: biochemical; conditions: for HDAC6 selectivity (fold): HDAC1 vs HDAC6; for IC50: human recombinant HDAC6, same protocol as HDAC1
T2 construct: purchased Calbiochem Inc. 382180
T2 sequence (Q9UBN7 1-1215): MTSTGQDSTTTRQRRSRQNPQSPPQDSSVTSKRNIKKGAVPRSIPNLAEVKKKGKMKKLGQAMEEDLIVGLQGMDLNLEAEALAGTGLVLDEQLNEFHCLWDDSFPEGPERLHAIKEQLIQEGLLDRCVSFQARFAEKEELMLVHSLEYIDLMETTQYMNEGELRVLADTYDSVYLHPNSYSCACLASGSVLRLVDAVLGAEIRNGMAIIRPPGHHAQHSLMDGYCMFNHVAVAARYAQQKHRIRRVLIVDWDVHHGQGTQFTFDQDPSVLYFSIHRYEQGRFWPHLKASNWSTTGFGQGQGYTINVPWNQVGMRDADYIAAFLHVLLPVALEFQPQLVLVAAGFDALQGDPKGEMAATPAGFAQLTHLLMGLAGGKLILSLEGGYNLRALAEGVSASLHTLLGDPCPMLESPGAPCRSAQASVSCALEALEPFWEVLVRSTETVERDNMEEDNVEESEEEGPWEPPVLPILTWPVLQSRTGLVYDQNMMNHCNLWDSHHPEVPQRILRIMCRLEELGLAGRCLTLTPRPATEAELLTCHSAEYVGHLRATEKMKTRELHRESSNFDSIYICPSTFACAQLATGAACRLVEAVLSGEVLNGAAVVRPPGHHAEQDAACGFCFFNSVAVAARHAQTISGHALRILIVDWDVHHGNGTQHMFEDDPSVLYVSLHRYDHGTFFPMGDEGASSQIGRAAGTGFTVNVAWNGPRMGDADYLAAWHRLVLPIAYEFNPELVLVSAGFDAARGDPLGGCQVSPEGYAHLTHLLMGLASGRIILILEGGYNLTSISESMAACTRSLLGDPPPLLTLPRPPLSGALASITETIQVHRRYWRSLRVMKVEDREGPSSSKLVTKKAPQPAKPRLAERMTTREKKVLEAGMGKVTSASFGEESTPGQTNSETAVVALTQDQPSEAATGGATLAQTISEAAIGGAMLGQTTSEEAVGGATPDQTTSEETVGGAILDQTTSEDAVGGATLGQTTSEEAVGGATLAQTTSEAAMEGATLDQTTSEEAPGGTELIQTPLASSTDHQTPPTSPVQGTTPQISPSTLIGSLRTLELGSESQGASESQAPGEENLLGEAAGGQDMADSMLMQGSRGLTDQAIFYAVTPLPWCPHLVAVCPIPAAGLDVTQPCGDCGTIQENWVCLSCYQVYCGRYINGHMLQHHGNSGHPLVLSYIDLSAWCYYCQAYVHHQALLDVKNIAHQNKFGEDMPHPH
How it was run: as §1

| IC50 [1] [nM] | HDAC6 selectivity (fold) [2] | IC50 [2] [nM] | Compound |
| --- | --- | --- | --- |
| 23700 | 1,022 fold | 23.2 | O=C(N(Cc1ccc(-c2nnc(C(F)F)o2)cn1)c1cccc(F)c1)C1(F)CN(C2CN(C3CCOC3)C2)C1 (stereo not drawn) [Compound 3397, N-((5-(5-(difluoromethyl)-1,3,4-oxadiazol-2-yl)pyridin-2-yl)methyl)-3-fluoro-N-(3-fluorophenyl)-1′-(tetrahydrofuran-3-yl)-[1,3′-biazetidine]-3-carboxamide] |
| > 50000 | 2,024 fold | 24.7 | CCCN1CCC(N2CC(F)(C(=O)N(Cc3ccc(-c4nnc(C(F)F)o4)cn3)c3ccccc3)C2)CC1 [Compound 3112, N-((5-(5-(difluoromethyl)-1,3,4-oxadiazol-2-yl)pyridin-2-yl)methyl)-3-fluoro-N-phenyl-1-(1-propylpiperidin-4-yl)azetidine-3-carboxamide] |
| > 50000 | 2,040 fold | 24.5 | CC(C)N1CCC(N2CC(F)(C(=O)N(Cc3ccc(-c4nnc(C(F)F)o4)cn3)c3ccccc3)C2)CC1 [Compound 3115, N-((5-(5-(difluoromethyl)-1,3,4-oxadiazol-2-yl)pyridin-2-yl)methyl)-3-fluoro-1-(1-isopropylpiperidin-4-yl)-N-phenylazetidine-3-carboxamide] |
| > 50000 | 441 fold | 113 | CC(C)C(=O)N1CC(F)(C(=O)N(Cc2ccc(-c3nnc(C(F)F)o3)cc2F)c2ccccc2)C1 [Compound 3434, N-(4-(5-(difluoromethyl)-1,3,4-oxadiazol-2-yl)-2-fluorobenzyl)-3-fluoro-1-isobutyryl N-phenylazetidine-3-carboxamide] |
| > 50000 | 2,212 fold | 22.6 | CCN1CC(F)(C(=O)N(Cc2ccc(-c3nnc(C(F)F)o3)cn2)c2cccc(F)c2)C1 [Compound 3090, N-((5-(5-(difluoromethyl)-1,3,4-oxadiazol-2-yl)pyridin-2-yl)methyl)-1-ethyl-3-fluoro-N-(3-fluorophenyl)azetidine-3-carboxamide] |
| 44500 | 1,951 fold | 22.8 | CCCN1CCC(N2CC(F)(C(=O)N(Cc3ccc(-c4nnc(C(F)F)o4)cn3)c3cccc(F)c3)C2)CC1 [Compound 3401, N-((5-(5-(difluoromethyl)-1,3,4-oxadiazol-2-yl)pyridin-2-yl)methyl)-3-fluoro-N-(3-fluorophenyl)-1-(1-propylpiperidin-4-yl)azetidine-3-carboxamide] |
| > 50000 | 1,347 fold | 37.1 | CCC(=O)N1CC(F)(C(=O)N(Cc2ccc(-c3nnc(C(F)F)o3)cn2)c2ccccc2)C1 [Compound 3153, N-((5-(5-(difluoromethyl)-1,3,4-oxadiazol-2-yl)pyridin-2-yl)methyl)-3-fluoro-N-phenyl-1-propionylazetidine-3-carboxamide] |
| > 50000 | 1,440 fold | 34.7 | O=C(C1CC1)N1CC(F)(C(=O)N(Cc2ccc(-c3nnc(C(F)F)o3)cn2)c2cccc(F)c2)C1 [Compound 3217, 1-(cyclopropanecarbonyl)-N-((5-(5-(difluoromethyl)-1,3,4-oxadiazol-2-yl)pyridin-2-yl)methyl)-3-fluoro-N-(3-fluorophenyl)azetidine-3-carboxamide] |
| 27500 | 735 fold | 37.4 | CCCCN1CC(F)(C(=O)N(Cc2ccc(-c3nnc(C(F)F)o3)cn2)c2ccccc2)C1 [Compound 3003, 1-butyl-N-((5-(5-(difluoromethyl)-1,3,4-oxadiazol-2-yl)pyridin-2-yl)methyl)-3-fluoro-N-phenylazetidine-3-carboxamide] |
| > 50000 | 196 fold | 254 | CN1CC(F)(C(=O)N(Cc2ccc(-c3nnc(C(F)(F)F)o3)cn2)c2cccc(F)c2)C1 [Compound 6891, 3-fluoro-N-(3-fluorophenyl)-1-methyl-N-((5-(5-(trifluoromethyl)-1,3,4-oxadiazol-2-yl)pyridin-2-yl)methyl)azetidine-3-carboxamide] |
| > 50000 | 1,385 fold | 36.1 | O=C(N(Cc1ccc(-c2nnc(C(F)F)o2)cn1)c1cccc(F)c1)C1(F)CN(C2CCC(F)(F)CC2)C1 [Compound 3096, 1-(4,4-difluorocyclohexyl)-N-((5-(5-(difluoromethyl)-1,3,4-oxadiazol-2-yl)pyridin-2-yl)methyl)-3-fluoro-N-(3-fluorophenyl)azetidine-3-carboxamide] |
| 24900 | 443 fold | 56.1 | O=C(N(Cc1ccc(-c2nnc(C(F)F)o2)cn1)c1ccccc1)C1(F)CCN(C2CCCC2)CC1 [Compound 2996, 1-cyclopentyl-N-((5-(5-(difluoromethyl)-1,3,4-oxadiazol-2-yl)pyridin-2-yl)methyl)-4-fluoro-N-phenylpiperidine-4-carboxamide] |
| 36600 | 1,695 fold | 21.6 | CCN1CCC(N2CC(F)(C(=O)N(Cc3ccc(-c4nnc(C(F)F)o4)cn3)c3cccc(F)c3)C2)CC1 [Compound 3400, N-((5-(5-(difluoromethyl)-1,3,4-oxadiazol-2-yl)pyridin-2-yl)methyl)-1-(1-ethylpiperidin-4-yl)-3-fluoro-N-(3-fluorophenyl)azetidine-3-carboxamide] |
| > 50000 | 941 fold | 53.1 | COCCC(=O)N1CC(F)(C(=O)N(Cc2ccc(-c3nnc(C(F)F)o3)cn2)c2ccccc2)C1 [Compound 3157, N-((5-(5-(difluoromethyl)-1,3,4-oxadiazol-2-yl)pyridin-2-yl)methyl)-3-fluoro-1-(3-methoxypropanoyl)-N-phenylazetidine-3-carboxamide] |
| > 50000 | 1,436 fold | 34.8 | CCCN1CC(F)(C(=O)N(Cc2ccc(-c3nnc(C(F)F)o3)cn2)c2cccc(F)c2)C1 [Compound 3091, N-((5-(5-(difluoromethyl)-1,3,4-oxadiazol-2-yl)pyridin-2-yl)methyl)-3-fluoro-N-(3-fluorophenyl)-1-propylazetidine-3-carboxamide] |
